Measured values from patent publication US11001745B2, “Hydrocarbon recovery composition, method, and system” (THE SASKATCHEWAN RESEARCH COUNCIL, priority 2016, dated 2021).

How the values were obtained:
[1] = Dissolution of asphaltenes; assay type: physicochemical
[2] = Thermal stability; assay type: physicochemical; settings: 200° C.
[3] = room temperature; cited from earlier work

SMILES	Asphaltenes dissolve in the compound [1]	Thermal stability [2]	Solubility in water [3]
CCCCCCCCN1CCCC1=O [NOP, N-octyl-2-pyrrolidone]	dissolve	stable for at least one week	about 1 g/L
CCCCCCCCCCCCN1CCCC1=O [NDDP, N-dodecyl-2-pyrrolidone]	dissolve		
O=C1CCCN1C1CCCCC1 [NCHP, N-cyclohexyl-2-pyrrolidone]	dissolve		
